Literature values, collected in patent publication US20250241850A1, “BIOADHESIVE NASAL SPRAY COMPOSITION, PREPARATION METHOD AND USE” (Eurofarma Laboratórios S.A., priority 2022, published 2025).
Where a name gives a salt, the structure may show the parent alone.

Conditions: in vivo

For `CN1C2CCCC1CC(NC(=O)c1nn(C)c3ccccc13)C2` (stereo not shown) [Granisetron hydrochloride], the half-life is given as 3 to 4 h.
